Data from PubChem BioAssay AID1645868 (Buhrlage Lab, Dana-Farber Cancer Institute and Novartis …, 2021).
The source made the active and inactive calls.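 Rule for the calls: active = maximal percent inhibition of the deubiquitinase OTUD3 of at least 30% across the tested doses; inactive = the rest.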 Positions of bridges follow the written chain, without caps; N, C: chain ends. Residues, ends and D or L forms follow the SMILES beside them. ξ: configuration not given here. *: point of attachment. Pentadecanoyl(3ξ-OH,15-Gua) = N=C(N)NCCCCCCCCCCCCC(O)CC(=O)*

Molecular target: OTU domain-containing protein 3 (Homo sapiens) (UniProt Q5T2D3)
Test: Validation of screening hits, potency titration, in vitro enzymatic, OTU domain-containing protein 3 DUB inhibitors (AID 1645868)
Details: purified OTUD3, ubiquitin-rhodamine cleavage fluorescence, 2 h

Chain of OTU domain-containing protein 3 (Homo sapiens) (Q5T2D3 whole entry, looked up, the tested form may be a part): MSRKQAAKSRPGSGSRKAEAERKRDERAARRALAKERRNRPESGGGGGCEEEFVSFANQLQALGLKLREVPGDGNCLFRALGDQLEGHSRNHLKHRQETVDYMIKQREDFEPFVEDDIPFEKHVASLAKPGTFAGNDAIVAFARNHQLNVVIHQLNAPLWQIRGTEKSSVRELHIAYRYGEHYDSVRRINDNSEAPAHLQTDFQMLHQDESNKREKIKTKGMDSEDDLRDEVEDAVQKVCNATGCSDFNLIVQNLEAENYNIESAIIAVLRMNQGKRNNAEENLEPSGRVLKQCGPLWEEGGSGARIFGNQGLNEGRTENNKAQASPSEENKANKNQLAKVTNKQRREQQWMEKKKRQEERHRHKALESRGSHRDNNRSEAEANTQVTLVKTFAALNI

SMILES	IC50
COc1ccc(NC(=O)c2nnn(-c3cccc(C)c3)c2C)cc1	> 50 µM (inactive)
Cc1c(S(=O)(=O)NC2CCCCNC2=O)sc2ccc(Cl)cc12 (stereo not drawn)	> 50 µM (inactive)
Cc1noc(-c2ccc(N3CCCC(C(=O)NCc4ccc(F)cc4)C3)nc2)n1 (stereo not drawn)	32.2 µM
COc1ccc(-c2cc(-c3nnc(CSc4nc5ccccc5n4C)o3)c3ccccc3n2)cc1OC	> 50 µM (inactive)
Cc1c(C)c2ccc(OCC(=O)NCc3ccncc3)c(C)c2oc1=O	> 50 µM (inactive)
CCc1ccc2[nH]c(=O)c(CN(CCc3ccc(OC)c(OC)c3)C(=O)Nc3ccccc3)cc2c1	> 50 µM (inactive)
O=C(Cn1nc2c3c4c(sc3ncn2c1=O)CCCCC4)Nc1ccc(Cl)cc1F	17.6 µM
Nc1ncnc(SCc2ccc(Cl)cc2)n1	29.3 µM
COc1cc(C(=O)Nc2ccc(-c3csc(C)n3)cc2)cc(OC)c1OC	> 50 µM (inactive)
Cc1nc(SCC(=O)Nc2cc(Cl)ccc2C)c2oc3ccccc3c2n1	> 50 µM (inactive)
CCCc1c(C(=O)O)c(O[C@H]2O[C@H](C)[C@@H](OC)[C@H](OC)[C@@H]2OC)cc2cc3c(c(O)c12)C(=O)c1c(O)cc(O[C@@H]2O[C@@H](C)[C@H](O[C@H]4O[C@H](C)[C@@H](OC)[C@H](OC)[C@@H]4O)[C@@H](OC)[C@H]2O)cc1C3=O	> 50 µM (inactive)
Cc1c(-c2nnc(-c3ccccc3Cl)o2)nnn1-c1ccccc1	> 50 µM (inactive)
O=C(Nc1cccc(F)c1)C1CCCN(S(=O)(=O)N2CCCCCC2)C1 (stereo not drawn)	> 50 µM (inactive)
CC1=C[C@@H](C)CC[C@H]2O[C@@H](C3=C(O)C(=O)C(C)=C4O[C@](O)(C=C43)[C@@H](C)C[C@H](C)C1)[C@H](C)[C@@H](O)[C@H]2C	20 µM
COc1cccc(-n2c(=O)[nH]c3c(C(N)=O)nc(-c4ccc(OCc5ccccc5)cc4)nc32)c1	> 50 µM (inactive)
Nc1ccccc1SC(CC(=O)c1ccc(Cl)cc1)c1ccsc1 (stereo not drawn)	> 50 µM (inactive)
N#Cc1c(Cl)cccc1Oc1ccc(S(=O)(=O)N2CCC(O)CC2)cc1	21.3 µM
O=C(COC(=O)C1CCCN1C(=O)C12CC3CC(CC(C3)C1)C2)c1ccc(Cl)cc1 (stereo not drawn)	> 50 µM (inactive)
COc1ccccc1-c1nc(-c2cn(-c3ccc(C)cc3)nn2)no1	> 50 µM (inactive)
Cc1ccc(C(=O)NCC(=O)Nc2nc3ccccc3[nH]2)c(C)c1	35.3 µM

SMILES	IC50
Cc1cc(C)cc(-n2cnc3cc(C(=O)NCCC4=CCCCC4)ccc32)c1	> 50 µM (inactive)
CCn1c(SCc2cccc(C)c2)nnc1-c1cnccn1	> 50 µM (inactive)
CCOc1ccc(NC(=O)COc2cccc(-n3cnnn3)c2)cc1	> 50 µM (inactive)
Oc1cc(OCc2cccc(C(F)(F)F)c2)ccc1-c1ccn[nH]1	45 µM
COc1ccc(-c2cc(C(F)F)n3ncc(C(=O)Nc4ccc5c(c4)OCCO5)c3n2)cc1	> 50 µM (inactive)
Cc1cc2c(cc1C)NC(CC(=O)Nc1ccc(O)cc1)C(=O)N2 (stereo not drawn)	30.8 µM
O=c1[nH]c(C2CCN(S(=O)(=O)c3ccc(S(=O)(=O)NC4CCCCC4)cc3)CC2)nc2c1nnn2Cc1c(F)cccc1Cl	27.9 µM
COC1=CC(=O)c2c(O)c(C)c(CC(C)=O)c(O)c2C1=O	> 50 µM (inactive)
Cc1nc2ccc(NC(=O)COc3ccccc3[N+](=O)[O-])cc2s1	19.9 µM
COc1ccc(CCNC(=O)CSc2cn(CCNC(=O)c3ccc(F)cc3)c3ccccc23)cc1OC	37.7 µM
COc1ccc(C(=O)CSc2nnc(-c3cc4cccc(OC)c4o3)n2C)cc1OC	> 50 µM (inactive)
COc1ccccc1NC(=O)Cn1cc(C(=O)c2ccc(C)cc2)c(=O)c2cc(Cl)ccc21	23.9 µM
COc1ccc(NC(=O)CC(=O)c2ccc([N+](=O)[O-])cc2)cc1S(=O)(=O)Nc1ccc(Br)cc1	28.7 µM
O=C(Nc1nnc(C2CC2)s1)c1ccc(OCC2CCCO2)cc1 (stereo not drawn)	> 50 µM (inactive)
CO/C=C/C(=O)c1cc2cnc3c(=N)cc(NC(C)=O)c([nH]1)c23	> 50 µM (inactive)
O=C(Cc1cccs1)Nc1cc(F)c2nc(N3CCOCC3)ccc2c1	> 50 µM (inactive)
CC(C)CCCCCCCCCCC(=O)N(C)[C@H](CO)C(=O)N[C@H](C)C(=O)NCC(=O)N(C)C1C(=O)N[C@@H](C)C(=O)NC(C(=O)O)Cc2ccc(O)c(c2)-c2cc1ccc2O (stereo partly drawn)	> 50 µM (inactive)
Cn1ccnc1CN1C[C@H]2CCN(c3ncccn3)C[C@H]2C1	> 50 µM (inactive)
Oc1ccc(-c2nc3ccc(Cl)cn3c2NC2CCCCC2)cc1	29.7 µM
COc1cccc(NC(=O)Nc2nccn(-c3ccc(F)cc3)c2=O)c1	49.2 µM

SMILES	IC50
CCN(CC)C(=O)c1sc(NC(=O)/C=C/c2c(F)cccc2Cl)c(C#N)c1C	> 50 µM (inactive)
CC(=O)c1ccc(NC(=O)/C(=C/c2ccco2)n2nnnc2-c2ccccc2)cc1	> 50 µM (inactive)
COc1cc(OC)cc(-n2c(=O)c3sccc3n(CC(=O)Nc3ccc(C)cc3)c2=O)c1	21.1 µM
Cc1ccc2c(=O)c3c([nH]c2c1C)CCN(CC(=O)NCc1ccc2c(c1)OCO2)C3	> 50 µM (inactive)
Cc1cc(=O)n(CC(=O)Nc2ccccc2F)c(Nc2ccc(F)cc2)n1	16.3 µM
CS(=O)(=O)n1nc(NCc2ccc(F)cc2)nc1NCc1ccc(F)cc1	> 50 µM (inactive)
CCc1cccc(CC)c1NC(=O)COC(=O)c1cc2cccc(OC)c2oc1=O	27.6 µM
CC1NC(=O)C(CC(N)=O)NC(=O)C(C(C)O)NC(=O)C(Cc2ccc(O)cc2)NC(=O)C(C(C)C)NC(=O)C(NC(=O)CC(O)CCCCCCCCCCCCN=C(N)N)C(C)OC1=O (stereo not drawn) ({Pentadecanoyl(3ξ-OH,15-Gua)}-TVYTNA; ester 1-C; configuration not given here)	36.6 µM
COC(=O)c1ccc(C(=O)Nc2cc3ccccc3cc2NC(=O)c2ccc(C(=O)OC)cc2)cc1	19.1 µM
COc1cc(N)c(Cl)cc1C(=O)OCC(=O)c1ccc2c(c1)OCCO2	> 50 µM (inactive)
Cc1ccc(N=Cc2sc(O)c3ccccc23)c(C)c1	> 50 µM (inactive)
CN[C@H]1CC2(CCN(C(=O)CCCn3cccn3)CC2)OC[C@]1(C)O	> 50 µM (inactive)
Cc1sc2ccn(C)c(=O)c2c1C(=O)NC1CCCC1	30.8 µM
COc1ccccc1/C=C/C(=O)Nc1nc2n(n1)C(c1ccc(Cl)cc1)CC(=O)N2 (stereo not drawn)	> 50 µM (inactive)
COc1cccc2c1OCC(C(=O)NCc1ccc(F)cc1)=C2	> 50 µM (inactive)
Clc1cccc(N2CCN(c3ncnc4nc[nH]c34)CC2)c1	> 50 µM (inactive)
N#Cc1cccc(NC(=O)Nc2cccn(Cc3ccccc3F)c2=O)c1	> 50 µM (inactive)
CC(C)N1CC[C@@H]2[C@H](C1)CN2C(=O)Nc1cccc(F)c1	> 50 µM (inactive)
CC(C)(C)C(=O)Nc1ccc(SCc2nnc(-c3ccccc3)o2)cc1	> 50 µM (inactive)
COc1cc(Cl)ccc1Oc1ncnc2sc(C)c(C)c12	> 50 µM (inactive)

Now from value to molecule:

IC50	SMILES
> 50 µM (inactive)	O=S(=O)(c1cccc(F)c1)N1CCN(c2nnnn2-c2ccccc2)CC1
> 50 µM (inactive)	Cc1cc2nc(Oc3cccc(Cl)c3)c3ccccc3n2n1
12.1 µM	O=C(Cn1c(=O)n(CC(=O)NC2CCCC2)c(=O)c2ccccc21)Nc1cc(Cl)ccc1Cl
49 µM	NS(=O)(=O)c1cc(C(=O)OCC(=O)NC2CCCc3ccccc32)ccc1Cl (stereo not drawn)
> 50 µM (inactive)	CCn1c(CNc2ccc(Cl)cc2)nnc1SCC(=O)Nc1ccccc1
> 50 µM (inactive)	CC1CCCN1C(=O)c1ccn(-c2ccc3ccc(-c4cccnc4)cn23)n1 (stereo not drawn)
28.3 µM	N#Cc1cccc(S(=O)(=O)N2CCc3nc4ccccc4n3CC2)c1
> 50 µM (inactive)	COc1ccc(OC)c(-c2cc(C(=O)Nc3c(C)nn(Cc4ccccc4)c3C)no2)c1
> 50 µM (inactive)	Cc1ccc(OCCn2c(=N)n(C(C)C)c3ccccc32)cc1
> 50 µM (inactive)	O=C(Nc1cccc(S(=O)(=O)N2CCCC2)c1)c1ccc2c(=O)n3c(nc2c1)CCCCC3
> 50 µM (inactive)	CCn1cnc2c1c(=O)n(CC(=O)NCc1ccccc1Cl)c(=O)n2Cc1ccccc1
> 50 µM (inactive)	CSc1ccc(CNCc2c(C(=O)O)n(Cc3ccccc3)c3cc(C)ccc23)cc1
32.8 µM	Cc1cccc(OCCn2c(CCNC(=O)C3CCCCC3)nc3ccccc32)c1
> 50 µM (inactive)	O=c1c(NCCCN2CCCC2)nc2ccncc2n1Cc1ccccc1
> 50 µM (inactive)	Cc1nc(Nc2ncc(C)s2)cc(C2CN(C(=O)Cc3ccccc3)CCO2)n1 (stereo not drawn)
18.7 µM	COc1ccc(C(=O)Nc2nc3n(n2)C(c2ccccc2)CC(=O)N3)cc1 (stereo not drawn)
> 50 µM (inactive)	Cc1ccccc1Cn1ccc2ccn(Cc3cccnc3)c2c1=O

IC50	SMILES
23.7 µM	N#Cc1ccccc1Cn1c(=O)n(CCCCC(=O)NCCc2ccccc2)c(=O)c2ccccc21
24.4 µM	O=C(CSc1ncnc2c1oc1ccccc12)NC1CCCC1
40.3 µM	O=C(NCc1ccccc1)Nc1cccc2ccccc12
> 50 µM (inactive)	Nc1ccc(F)c(NS(=O)(=O)c2ccccc2)c1
> 50 µM (inactive)	CCC(C)(C)C1CCC2(CC1)N=C(N)Nc1nc3ccccc3n12 (stereo not drawn)
> 50 µM (inactive)	CCCCn1c(=O)c(CCC(=O)OCC(=O)Nc2ccc3c(c2)OCCO3)nc2ccccc21
> 50 µM (inactive)	CN(Cc1ccccc1)S(=O)(=O)c1ccc(S(=O)(=O)N2CCN(C(=O)c3cccnc3)CC2)cc1
36.9 µM	O=C(Nc1cccc(-c2noc(C3CCC3)n2)c1)C1CC(=O)N(c2ccccc2)C1 (stereo not drawn)
44.3 µM	COc1ccc(Cl)cc1NC(=O)Cn1c(=O)cc(C)c2c(C)nn(-c3ccccc3)c21
> 50 µM (inactive)	CCn1c(CN2CCCC(c3nc(-c4cccnc4)n[nH]3)C2)nc2ccccc21 (stereo not drawn)
> 50 µM (inactive)	Cc1nc(-c2ccc3c(c2)nnn3CCN2CCOCC2)no1
> 50 µM (inactive)	CN1CC2CN(C(=O)Nc3cccnc3)CCN2Cc2ccccc21 (stereo not drawn)
> 50 µM (inactive)	O=C(NCc1nc(-c2ccc3c(c2)[nH]c(=O)n3C2CCCC2)no1)c1ccccc1
35.4 µM	O=C(CNC(=O)c1cccc(F)c1)Nc1nc2ccccc2[nH]1
> 50 µM (inactive)	O=C(c1nnn(Cc2ccc(Cl)cc2)c1-n1cccc1)N1CCCC1
> 50 µM (inactive)	N#Cc1ccccc1Cn1c(=O)n(Cc2ccco2)c(=O)c2ccccc21
